Measurements taken from patent publication US20220062233A1 (The Board of Trustees of the Leland Stanford Junior …, priority 2018, published 2022).

Tests used:
[1] = target: T1, interaction between Supt4h and NGN (subunit of Supt5h) (Homo sapiens, UniProt O00267+P63272); assay: Split Gaussia luciferase complementation assay (M2-8 Luciferase); format: cell-based; details: M2-8 cells
T1 construct: expressed in transfected cells
Method in brief: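 HEK293-derived M2-8 cells inducibly express Supt4h-Gluc1 and NGN-Gluc2 fragments (stabilizing mutations) on RheoSwitch ligand addition; ligand plus compound added 24 h after plating and left 24 h. Cells frozen, lysed with 10 μg/ml native coelenterazine, 1 h room temperature dark; complemented luciferase luminescence read.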

M2-8 cells = assay: M2-8 Cell viability Assay; format: cell-based; details: at the concentration of 1000 nM
mutant HTT = assay: Mutant HTT assay in lymphoblastoid cells (LBC), Western blot; format: cell-based, human; details: read-out: LBC IC20 (nM) mHTT, 3 days compound treatment
Method in brief: (§1)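 HD patient lymphoblastoid cells (GM14044, 250 CAG repeats in mutant allele) treated with compound for 3 days. Lysates normalised by BCA, run on SDS-PAGE and immunoblotted: mutant HTT with anti-polyQ MW1, wild-type HTT with anti-Huntingtin antibody, TBP and tubulin also probed. Band intensities quantified by infrared imaging.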

wild-type HTT = assay: Wild-type HTT assay in lymphoblastoid cells (LBC), Western blot; format: cell-based, human; details: 3 days compound treatment, read-out: LBC IC20 (nM) wtHTT
Method in brief: as §1

mouse hepatocytes = assay: In vitro metabolic stability in mouse hepatocytes; format: in vitro ADME
Procedure: A. In Vitro Metabolic Stability in Hepatocyte
A compound's metabolic stability was assessed using mouse hepatocytes incubated with pre-defined concentration of test articles over several incubation period. The extent of metabolism was calculated from the disappearance of the test compound measured by liquid chromatography mass spectrometry (LC-MS), compared to that of 0-min control. After incubation, quench solutions including internal standards were added and analyzed by LC/MS. The elimination rate constant and intrinsic clearance (CLhepatocyte) values were calculated by linear regression of the compound elimination over the duration of incubation, normalized to the cell number in the given volume of incubation medium.

[2] = system: Lymphoblastoid cells (GM14044); assay: LBC cell viability (Cell Titer-Glo); format: cell-based, human; details: at the concentration of IC20, 3-day compound treatment
Procedure: Cell viability was determined by Cell Titer-Glo reagent (Promega, PRG9243). After 3-day compound treatment, 15 μl of cell suspension was taken out from plate and incubated with 10 μl of CTG reagent. The values of reaction mixture were detected by Tecan.

SMILES | IC50 [1] | M2-8 Cell viability (M2-8 cells) | IC20 (mutant HTT) | IC20 (wild-type HTT) | Mouse HepStability (CLhepatocyte) (mouse hepatocytes) | LBC viability at IC20 [2] | elimination in in vitro hepatocyte stability assay (comparison) (mouse hepatocytes; compound #2 versus deuterated compound #42, FIG. 1A)
OCCOCc1ccc(CN[C@@H]2CCCc3c2[nH]c2ccc(Br)cc32)cc1 (single isomer, unassigned) [Compound 28] | ≤ 100 nM | + (cell viability is greater than 50% at the concentration of 1000 nM) | < 100 nM | > 1000 nM | A (CLhepatocyte <10 μl/min/10^6cells) | * (cell viability is greater than 60% at the concentration of IC20) | 
OCc1ccc(CNC2CCCc3c2[nH]c2ccc(Br)cc32)cc1 (stereo not shown) [Compound 1] | ≤ 100 nM | + (cell viability is greater than 50% at the concentration of 1000 nM) | 101 to 300 nM | > 1000 nM | C (CLhepatocyte >30 μl/min/10^6cells) | * (cell viability is greater than 60% at the concentration of IC20) | 
OCc1ccc(CN[C@@H]2CCCc3c2[nH]c2ccc(Br)cc32)cc1 [Compound 2, (R)-(4-(((6-bromo-2,3,4,9-tetrahydro-1H-carbazol-1-yl)amino)methyl)phenyl)methanol] | ≤ 100 nM | + (cell viability is greater than 50% at the concentration of 1000 nM) | < 100 nM | > 250 nM | C (CLhepatocyte >30 μl/min/10^6cells) | * (cell viability is greater than 60% at the concentration of IC20) | more rapidly eliminated
CC(C)(O)c1ccc(CN[C@@H]2CCCc3c2[nH]c2ccc(Br)cc32)cc1 [Compound 31, (R)-2-(4-(((6-bromo-2,3,4,9-tetrahydro-1H-carbazol-1-yl)amino)methyl)phenyl)propan-2-ol] | ≤ 100 nM | + (cell viability is greater than 50% at the concentration of 1000 nM) | < 100 nM | > 250 nM | A (CLhepatocyte <10 μl/min/10^6cells) | * (cell viability is greater than 60% at the concentration of IC20) | 
[2H]C([2H])(O)c1ccc(CN[C@@H]2CCCc3c2[nH]c2ccc(Br)cc32)cc1 [Compound 42, (R)-(4-(((6-bromo-2,3,4,9-tetrahydro-1H-carbazol-1-yl)amino)methyl)phenyl)methan-d2-ol] | ≤ 100 nM | + (cell viability is greater than 50% at the concentration of 1000 nM) | < 100 nM | > 1000 nM | C (CLhepatocyte >30 μl/min/10^6cells) | * (cell viability is greater than 60% at the concentration of IC20) | 
CS(=N)(=O)c1ccc(CN[C@@H]2CCCc3c2[nH]c2ccc(Br)cc32)cc1 (stereo partly drawn) [Compound 49, (4-((((R)-6-bromo-2,3,4,9-tetrahydro-1H-carbazol-1-yl)amino)methyl)phenyl)(imino)(methyl)-λ^6-sulfanone] | ≤ 100 nM | + (cell viability is greater than 50% at the concentration of 1000 nM) | 101 to 300 nM | > 500 nM | B (CLhepatocyte 10-30 μl/min/10^6cells) | * (cell viability is greater than 60% at the concentration of IC20) | 
